Reference: BigSolDB 2.1

Cc1nc2cc(N)ccc2s1
solubility (mole fraction)
Conditions	288.5 K	293.5 K	298.5 K	303.5 K	308.5 K	313.5 K	318.5 K	323.5 K	328.5 K
in ethanol	0.00125	0.00129	0.00156	0.00164	0.00174	0.00194	0.0022	0.00253	0.00284
in water	0.000191	0.000269	0.000311	0.000491	0.000534	0.000745	0.000872	0.000937	0.00113
